In ChEMBL document CHEMBL1144980, “Lupane triterpenes and derivatives with antiviral activity” (Bioorg Med Chem Lett, 2003):

Assays:
Human alphaherpesvirus 1 [1] = assay: Antiviral activity against HSV-1 determined by inhibition of viral cytopathic effect (CPE) in rhabdomyosarcoma (RD) cell line; format: functional, organism-based, herpes simplex virus; details: Human alphaherpesvirus 1, RD
Influenza A virus [2] = assay: Antiviral activity against influenza A virus determined in chicken embryo cells (CEC) by plaque reduction assay method.; format: functional, organism-based
Human alphaherpesvirus 1 [3] = assay: Ratio of maximum nontoxic concentration (MNTC) against HSV-1 to that of effective concentration (EC50); format: functional, herpes simplex virus
Influenza A virus [4] = assay: Ratio of maximum nontoxic concentration (MNTC) against Influenza virus A to that of effective concentration (EC50); format: functional

Row | Compound | EC50 (Human alphaherpesvirus 1 [1]) | EC50 (Influenza A virus [2]) | Ratio (Human alphaherpesvirus 1 [3]) | Ratio (Influenza A virus [4])
1 | C=C(C)[C@@H]1CCC2(NC(=O)N[C@H](CCSC)C(=O)OC)CC[C@@]3(C)C(CC[C@@H]4[C@@]5(C)CC/C(=N\O)C(C)(C)C5CC[C@]43C)C12 (some centres not stated) | 0.6 µM | 2.3 µM | 67.6 | 35.2
2 | C=C(C)[C@@H]1CC[C@]2(C(=O)O)CC[C@]3(C)[C@H](CC[C@@H]4[C@@]5(C)CC[C@H](O)C(C)(C)[C@@H]5CC[C@]43C)[C@@H]12 [BETULINIC ACID] | 8.2 µM | > 219 µM | 53.3 | <1
3 | C=C(C)[C@@H]1CC[C@]2(C(=O)O)CC[C@]3(C)[C@H](CC[C@@H]4[C@@]5(C)CCC(=O)C(C)(C)[C@@H]5CC[C@]43C)[C@@H]12 [BETUNOLIC ACID] | 2.5 µM | 5.7 µM | 43.9 | 9.6
4 | C=C(C)[C@@H]1CCC2(NC(=O)N[C@H](CC(C)C)C(=O)OC)CC[C@@]3(C)C(CC[C@@H]4[C@@]5(C)CCC(=O)C(C)(C)C5CC[C@]43C)C12 (some centres not stated) | 14.6 µM | 5 µM | 11.5 | >67
5 | C=C(C)[C@@H]1CC[C@]2(N=C=O)CC[C@@]3(C)C(CC[C@@H]4[C@@]5(C)CCC(=O)C(C)(C)C5CC[C@]43C)C12 (some centres not stated) | > 221 µM | > 221 µM | <1 | <1
6 | C=C(C)[C@@H]1CCC2(NC(=O)N[C@@H](C(=O)OC)C(C)C)CC[C@@]3(C)C(CC[C@@H]4[C@@]5(C)CCC(=O)C(C)(C)C5CC[C@]43C)C12 (some centres not stated) | 0.2 µM | > 85.7 µM | 454 | <1
7 | C=C(C)[C@@H]1CC[C@]2(C(=O)N[C@@H](CCSC)C(=O)OC)CC[C@@]3(C)C(CC[C@@H]4[C@@]5(C)CCC(=O)C(C)(C)C5CC[C@]43C)C12 (some centres not stated) | > 666 µM | 14.2 µM | <1 | 11.9
8 | C=C(C)[C@@H]1CC[C@]2(C(=O)N[C@H](C(=O)OC)C(C)C)CC[C@@]3(C)C(CC[C@@H]4[C@@]5(C)CCC(=O)C(C)(C)C5CC[C@]43C)C12 (some centres not stated) | 142 µM | 13.3 µM | 2.5 | 3.4
9 | C=C(C)[C@@H]1CC[C@]2(C(=O)NCCCCCCCCCCCCCCCCCC)CC[C@@]3(C)C(CC[C@@H]4[C@@]5(C)CCC(=O)C(C)(C)C5CC[C@]43C)C12 (some centres not stated) | 1.4 µM | 55.5 µM | 177 | 4.6
10 | C=C(C)[C@@H]1CC[C@]2(C(=O)N[C@@H](CC(C)C)C(=O)OC)CC[C@@]3(C)C(CC[C@@H]4[C@@]5(C)CCC(=O)C(C)(C)C5CC[C@]43C)C12 (some centres not stated) | 1370 µM | 72.3 µM | <1 | 1.2
11 | C=C(C)[C@@H]1CC[C@]2(C(=O)NN)CC[C@@]3(C)C(CC[C@@H]4[C@@]5(C)CCC(=O)C(C)(C)C5CC[C@]43C)C12 (some centres not stated) | 10 µM |  | 21.3 | 
12 | C=C(C)[C@@H]1CC[C@]2(C(=O)N[C@@H](C)C(=O)OC)CC[C@@]3(C)C(CC[C@@H]4[C@@]5(C)CCC(=O)C(C)(C)C5CC[C@]43C)C12 (some centres not stated) | 663 µM | > 234 µM | 1.4 | <1
13 | C=C(C)[C@@H]1CC[C@]2(C(=O)NN)CC[C@@]3(C)C(CC[C@@H]4[C@@]5(C)CC/C(=N\O)C(C)(C)C5CC[C@]43C)C12 (some centres not stated) | > 51.6 µM | 2 µM | <1 | 25.2
14 | C=C(C)[C@@H]1CC[C@]2(C(N)=O)CC[C@@]3(C)C(CC[C@@H]4[C@@]5(C)CCC(=O)C(C)(C)C5CC[C@]43C)C12 (some centres not stated) | 220 µM | 0.7 µM | <1 | 1333.3
15 | C=C(C)[C@@H]1CCC2(NC(=O)N[C@H](CCSC)C(=O)OC)CC[C@@]3(C)C(CC[C@@H]4[C@@]5(C)CCC(=O)C(C)(C)C5CC[C@]43C)C12 (some centres not stated) | 2.2 µM | 27.1 µM | 298.5 | 3
16 | C=C(C)[C@@H]1CC[C@]2(C(=O)NCCO)CC[C@@]3(C)C(CC[C@@H]4[C@@]5(C)CCC(=O)C(C)(C)C5CC[C@]43C)C12 (some centres not stated) | > 377 µM | > 755 µM | <1 | <1
